IC50 and Ratio data for 1 compound are collected here from US5541199A, “Chroman-2-ylmethylamino derivatives” (American Home Products Corporation, priority 1995, dated 1996).

Molecules are shown by their SMILES.

Assay [1] addresses T1, D2 (Rattus norvegicus, UniProt P61169). Nature of the assay: Affinity for the dopamine D-2 receptor: 3H-spiroperidol (Spiper.) binding, homogenized limbic brain tissue. Also on record: homogenized limbic brain tissue is incubated with; from tissue; host or cells: limbic brain tissue, homogenized.
The target of assay [2] is T2, 5-HT1a (Homo sapiens, UniProt P08908).
T2 sequence (P08908 1-422): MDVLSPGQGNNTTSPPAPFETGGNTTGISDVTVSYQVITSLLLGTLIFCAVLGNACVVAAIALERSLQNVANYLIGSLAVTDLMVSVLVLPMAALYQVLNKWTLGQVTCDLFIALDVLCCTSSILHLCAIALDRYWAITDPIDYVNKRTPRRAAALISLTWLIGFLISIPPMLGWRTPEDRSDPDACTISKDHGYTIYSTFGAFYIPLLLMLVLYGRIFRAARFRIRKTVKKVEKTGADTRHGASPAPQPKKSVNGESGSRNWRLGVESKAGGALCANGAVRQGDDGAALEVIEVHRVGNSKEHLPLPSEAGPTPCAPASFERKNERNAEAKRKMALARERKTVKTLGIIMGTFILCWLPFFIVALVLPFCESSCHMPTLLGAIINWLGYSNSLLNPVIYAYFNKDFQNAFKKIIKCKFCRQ
Nature of the assay: 5-HT1a IC50. The format is binding.

The target in assay [3] is T1, D2. Kind of assay: Affinity for the dopamine autoreceptor: 3H-quinpirole (Quin.) binding, homogenized rat striatal brain tissue. Also on record: homogenized rat striatal brain tissue; from tissue; host or cells: rat striatal brain tissue, homogenized.
Assay [4] has as its system α1. Kind of assay: α1 IC50. The format is binding.

T1 sequence (P61169 whole entry): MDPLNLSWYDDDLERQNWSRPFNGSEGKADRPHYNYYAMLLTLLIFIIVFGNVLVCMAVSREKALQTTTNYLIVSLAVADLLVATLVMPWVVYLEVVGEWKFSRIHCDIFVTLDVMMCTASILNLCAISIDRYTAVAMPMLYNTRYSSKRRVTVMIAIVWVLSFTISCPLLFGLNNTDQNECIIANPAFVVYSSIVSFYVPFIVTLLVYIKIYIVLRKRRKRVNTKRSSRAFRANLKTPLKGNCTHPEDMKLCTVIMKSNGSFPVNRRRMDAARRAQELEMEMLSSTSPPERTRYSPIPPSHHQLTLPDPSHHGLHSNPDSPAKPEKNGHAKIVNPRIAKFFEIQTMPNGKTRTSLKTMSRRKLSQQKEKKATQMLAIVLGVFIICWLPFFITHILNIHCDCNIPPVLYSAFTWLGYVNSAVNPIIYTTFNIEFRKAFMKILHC

As for `O=C1CCC(=O)N1CCCNCC1CCc2ccc(O)cc2O1` (centres unmarked) [Example 3d, 1-{3-[(7-Hydroxy-chroman-2-ylmethyl)-amino]-propyl}-pyrrolidine-2,5-dione], the IC50 in assay [1] was found to be 2180 nM; in assay [2], 303 nM; in assay [3] (3H-quinpirole, rat striatal brain tissue), 9.29 nM; in assay [4], 277 nM. Also, the Ratio in assay [3] (not defined in print, values match D2 Spiper. IC50 / D2 Quin. IC50) worked out at 234.
